# Test results published in article PMC6979384, “Characterization of the plant homeodomain (PHD) reader family for their histone tail interactions” (Epigenetics & Chromatin, 2020).
# Assays:
# Assay in all cases: Histone peptide microarray
# Type in all cases: binding, human
# [1] = test system: KDM7A; conditions: arrays performed twice, n of 4; for Array Heatmap signal, KDM7A: histone peptide array
# Outline: (§1)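 Binding of recombinant GST-fused PHD readers (0.5 μM) is detected on an array of 293 histone peptides, modified singly or in combination. An optimized array protocol is followed, and each intensity is the average of quadruplicate measurements with standard deviation.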
# [2] = test system: DPF2 (PPC2W2); conditions: arrays performed twice, n of 4; for Array Heatmap signal, DPF2 (PPC2W2): histone peptide array
# Outline: as §1
# [3] = test system: ING2; conditions: arrays performed twice, n of 4; for Array Heatmap signal, ING2: histone peptide array
# Outline: as §1
# [4] = test system: ING5; conditions: arrays performed twice, n of 4; for Array Heatmap signal, ING5: histone peptide array
# Outline: as §1
# [5] = test system: MLL5; conditions: arrays performed twice, n of 4; for Array Heatmap signal, MLL5: histone peptide array
# Outline: as §1
# [6] = test system: ING1; conditions: arrays performed twice, n of 4; for Array Heatmap signal, ING1: histone peptide array
# Outline: as §1
# [7] = test system: AIRE (PP); conditions: arrays performed twice, n of 4; for Array Heatmap signal, AIRE (PP): histone peptide array
# Outline: as §1
# [8] = test system: KDM4C (TTP); conditions: arrays performed twice, n of 4; for Array Heatmap signal, KDM4C (TTP): histone peptide array
# Outline: as §1
# [9] = test system: KDM5A (3); conditions: arrays performed twice, n of 4; for Array Heatmap signal, KDM5A (3): histone peptide array
# Outline: as §1
# [10] = test system: BPTF (PB); conditions: arrays performed twice, n of 4; for Array Heatmap signal, BPTF (PB): histone peptide array
# Outline: as §1
# [11] = test system: SP140L; conditions: arrays performed twice, n of 4; for Array Heatmap signal, SP140L: histone peptide array
# Outline: as §1
# [12] = test system: TRIM66 (PB); conditions: arrays performed twice, n of 4; for Array Heatmap signal, TRIM66 (PB): histone peptide array
# Outline: as §1
# [13] = test system: PHF13; conditions: arrays performed twice, n of 4; for Array Heatmap signal, PHF13: histone peptide array
# Outline: as §1
# [14] = test system: PHF21A; conditions: arrays performed twice, n of 4; for Array Heatmap signal, PHF21A: histone peptide array
# Outline: as §1
# [15] = test system: DIDO1; conditions: arrays performed twice, n of 4; for Array Heatmap signal, DIDO1: histone peptide array
# Outline: as §1
# [16] = test system: ING4; conditions: arrays performed twice, n of 4; for Array Heatmap signal, ING4: histone peptide array
# Outline: as §1
# [17] = test system: CHD5 (PPCC); conditions: arrays performed twice, n of 4; for Array Heatmap signal, CHD5 (PPCC): histone peptide array
# Outline: as §1
# [18] = test system: CHD5 (PCC); conditions: arrays performed twice, n of 4; for Array Heatmap signal, CHD5 (PCC): histone peptide array
# Outline: as §1
# [19] = test system: ING3; conditions: arrays performed twice, n of 4; for Array Heatmap signal, ING3: histone peptide array
# Outline: as §1
# [20] = test system: PHF23; conditions: arrays performed twice, n of 4; for Array Heatmap signal, PHF23: histone peptide array
# Outline: as §1
# [21] = test system: KDM5B (3); conditions: arrays performed twice, n of 4; for Array Heatmap signal, KDM5B (3): histone peptide array
# Outline: as §1
# [22] = test system: MORC3 (CW); conditions: arrays performed twice, n of 4; for Array Heatmap signal, MORC3 (CW): histone peptide array
# Outline: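 Readout is array binding signal, reported as the mean and standard deviation over four replicates. Each purified GST-fused PHD domain was incubated at 0.5 μM with a library of 293 modified histone peptides.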
# [23] = test system: KDM5B (1); conditions: arrays performed twice, n of 4; for Array Heatmap signal, KDM5B (1): histone peptide array
# Outline: as §1
# [24] = test system: PHRF1 (RP); conditions: arrays performed twice, n of 4; for Array Heatmap signal, PHRF1 (RP): histone peptide array
# Outline: as §1
# [25] = test system: PHF2; conditions: arrays performed twice, n of 4; for Array Heatmap signal, PHF2: histone peptide array
# Outline: as §1
# [26] = test system: TAF3; conditions: arrays performed twice, n of 4; for Array Heatmap signal, TAF3: histone peptide array
# Outline: as §1
# [27] = test system: PHF8; conditions: arrays performed twice, n of 4; for Array Heatmap signal, PHF8: histone peptide array
# Outline: as §1
# [28] = test system: RAG2; conditions: arrays performed twice, n of 4; for Array Heatmap signal, RAG2: histone peptide array
# Outline: as §1
# [29] = test system: CHD4 (PPCC); conditions: arrays performed twice, n of 4; for Array Heatmap signal, CHD4 (PPCC): histone peptide array
# Outline: as §1
# [30] = test system: KDM5A (1); conditions: arrays performed twice, n of 4; for Array Heatmap signal, KDM5A (1): histone peptide array
# Outline: as §1
# [31] = test system: BAZ2B; conditions: arrays performed twice, n of 4; for Array Heatmap signal, BAZ2B: histone peptide array
# Outline: as §1
# [32] = GST-tagged reader, PB = PHD + Bromodomain
# [33] = GST-tagged reader, PPCC = Dual PHD + Dual Chromodomain
substance,measurement,setting,value
H4K8but (1-23): H4 1-23,"Array Heatmap signal, KDM7A",[1]; GST-tagged reader,0.4551
same,"Array Heatmap signal, DPF2 (PPC2W2)","[2]; GST-tagged reader, PPC2W2 = Dual PHD + C2W2-type Zn-finger",0.6771
same,"Array Heatmap signal, ING2",[3]; GST-tagged reader,0.5968
same,"Array Heatmap signal, ING5",[4]; GST-tagged reader,0.3969
same,"Array Heatmap signal, MLL5",[5]; GST-tagged reader,0.5606
same,"Array Heatmap signal, ING1",[6]; GST-tagged reader,0.5208
same,"Array Heatmap signal, AIRE (PP)",[7]; GST-tagged reader,0.5833
same,"Array Heatmap signal, KDM4C (TTP)","[8]; GST-tagged reader, TTP = Tandem Tudor domain + PHD",0.554
same,"Array Heatmap signal, KDM5A (3)",[9]; GST-tagged reader,0.4217
same,"Array Heatmap signal, BPTF (PB)",[10]; [32],0.3704
same,"Array Heatmap signal, SP140L",[11]; GST-tagged reader,0.3902
same,"Array Heatmap signal, TRIM66 (PB)",[12]; [32],0.6276
same,"Array Heatmap signal, PHF13",[13]; GST-tagged reader,0.6477
same,"Array Heatmap signal, PHF21A",[14]; GST-tagged reader,0.5096
same,"Array Heatmap signal, DIDO1",[15]; GST-tagged reader,0.6187
same,"Array Heatmap signal, ING4",[16]; GST-tagged reader,0.503
same,"Array Heatmap signal, CHD5 (PPCC)",[17]; [33],0.6043
same,"Array Heatmap signal, CHD5 (PCC)","[18]; GST-tagged reader, PCC = PHD + Dual Chromodomain",0.8434
same,"Array Heatmap signal, ING3",[19]; GST-tagged reader,0.4842
same,"Array Heatmap signal, PHF23",[20]; GST-tagged reader,0.5244
same,"Array Heatmap signal, KDM5B (3)",[21]; GST-tagged reader,0.4914
same,"Array Heatmap signal, MORC3 (CW)","[22]; GST-tagged reader, CW = CW-type Zn-finger",0.3738
same,"Array Heatmap signal, KDM5B (1)",[23]; GST-tagged reader,0.6708
same,"Array Heatmap signal, PHRF1 (RP)",[24]; GST-tagged reader,0.4442
same,"Array Heatmap signal, PHF2",[25]; GST-tagged reader,0.4448
same,"Array Heatmap signal, TAF3",[26]; GST-tagged reader,0.3164
same,"Array Heatmap signal, PHF8",[27]; GST-tagged reader,0.3491
same,"Array Heatmap signal, RAG2",[28]; GST-tagged reader,0.2428
same,"Array Heatmap signal, CHD4 (PPCC)",[29]; [33],0.5879
same,"Array Heatmap signal, KDM5A (1)",[30]; GST-tagged reader,0.5298
same,"Array Heatmap signal, BAZ2B",[31]; GST-tagged reader,0.516
H4K8me1: H4 1-23 [Peptide H4K8me1],Array Heatmap value (peptide array binding signal),"[1]; KDM7A, GST-tagged",0.3413
same,Array Heatmap value (peptide array binding signal),"[2]; DPF2 (PPC2W2), GST-tagged",0.7109
same,Array Heatmap value (peptide array binding signal),"[3]; ING2, GST-tagged",0.5951
same,Array Heatmap value (peptide array binding signal),"[4]; ING5, GST-tagged",0.3641
same,Array Heatmap value (peptide array binding signal),"[5]; MLL5, GST-tagged",0.5584
same,Array Heatmap value (peptide array binding signal),"[6]; ING1, GST-tagged",0.5733
same,Array Heatmap value (peptide array binding signal),"[7]; AIRE (PP), GST-tagged",0.4246
same,Array Heatmap value (peptide array binding signal),"[8]; KDM4C (TTP), GST-tagged",0.4883
same,Array Heatmap value (peptide array binding signal),"[9]; KDM5A (3), GST-tagged",0.4616
same,Array Heatmap value (peptide array binding signal),"[10]; BPTF (PB), GST-tagged",0.3716
same,Array Heatmap value (peptide array binding signal),"[11]; SP140L, GST-tagged",0.3853
same,Array Heatmap value (peptide array binding signal),"[12]; TRIM66 (PB), GST-tagged",0.6142
same,Array Heatmap value (peptide array binding signal),"[13]; PHF13, GST-tagged",0.6242
same,Array Heatmap value (peptide array binding signal),"[14]; PHF21A, GST-tagged",0.4915
same,Array Heatmap value (peptide array binding signal),"[15]; DIDO1, GST-tagged",0.7218
same,Array Heatmap value (peptide array binding signal),"[16]; ING4, GST-tagged",0.4749
same,Array Heatmap value (peptide array binding signal),"[17]; CHD5 (PPCC), GST-tagged",0.558
same,Array Heatmap value (peptide array binding signal),"[18]; CHD5 (PCC), GST-tagged",0.8139
same,Array Heatmap value (peptide array binding signal),"[19]; ING3, GST-tagged",0.514
same,Array Heatmap value (peptide array binding signal),"[20]; PHF23, GST-tagged",0.5427
same,Array Heatmap value (peptide array binding signal),"[21]; KDM5B (3), GST-tagged",0.4591
same,Array Heatmap value (peptide array binding signal),"[22]; MORC3 (CW), GST-tagged",0.3765
same,Array Heatmap value (peptide array binding signal),"[23]; KDM5B (1), GST-tagged",0.6396
same,Array Heatmap value (peptide array binding signal),"[24]; PHRF1 (RP), GST-tagged",0.4962
same,Array Heatmap value (peptide array binding signal),"[25]; PHF2, GST-tagged",0.5963
same,Array Heatmap value (peptide array binding signal),"[26]; TAF3, GST-tagged",0.2722
same,Array Heatmap value (peptide array binding signal),"[27]; PHF8, GST-tagged",0.3718
same,Array Heatmap value (peptide array binding signal),"[28]; RAG2, GST-tagged",0.2588
same,Array Heatmap value (peptide array binding signal),"[29]; CHD4 (PPCC), GST-tagged",0.6125
same,Array Heatmap value (peptide array binding signal),"[30]; KDM5A (1), GST-tagged",0.445
same,Array Heatmap value (peptide array binding signal),"[31]; BAZ2B, GST-tagged",0.4726
H4K12ac + K16ac + K20me1: H4 11-27,"Array Heatmap signal, KDM7A",[1]; GST-tagged KDM7A,0.3032
same,"Array Heatmap signal, DPF2 (PPC2W2)",[2]; GST-tagged DPF2 (PPC2W2 = Dual PHD + C2W2-type Zn-finger),0.6625
same,"Array Heatmap signal, ING2",[3]; GST-tagged ING2,0.5978
same,"Array Heatmap signal, ING5",[4]; GST-tagged ING5,0.3345
same,"Array Heatmap signal, MLL5",[5]; GST-tagged MLL5,0.5572
same,"Array Heatmap signal, ING1",[6]; GST-tagged ING1,0.5716
same,"Array Heatmap signal, AIRE (PP)",[7]; GST-tagged AIRE (PP),0.384
same,"Array Heatmap signal, KDM4C (TTP)",[8]; GST-tagged KDM4C (TTP = Tandem Tudor domain + PHD),0.4269
same,"Array Heatmap signal, KDM5A (3)",[9]; GST-tagged KDM5A (3),0.4519
same,"Array Heatmap signal, BPTF (PB)",[10]; GST-tagged BPTF (PB = PHD + Bromodomain),0.3283
same,"Array Heatmap signal, SP140L",[11]; GST-tagged SP140L,0.3459
same,"Array Heatmap signal, TRIM66 (PB)",[12]; GST-tagged TRIM66 (PB = PHD + Bromodomain),0.5407
same,"Array Heatmap signal, PHF13",[13]; GST-tagged PHF13,0.5671
same,"Array Heatmap signal, PHF21A",[14]; GST-tagged PHF21A,0.4255
same,"Array Heatmap signal, DIDO1",[15]; GST-tagged DIDO1,0.7187
same,"Array Heatmap signal, ING4",[16]; GST-tagged ING4,0.4334
same,"Array Heatmap signal, CHD5 (PPCC)",[17]; GST-tagged CHD5 (PPCC = Dual PHD + Dual Chromodomain),0.5143
same,"Array Heatmap signal, CHD5 (PCC)",[18]; GST-tagged CHD5 (PCC = PHD + Dual Chromodomain),0.6765
same,"Array Heatmap signal, ING3",[19]; GST-tagged ING3,0.451
same,"Array Heatmap signal, PHF23",[20]; GST-tagged PHF23,0.5291
same,"Array Heatmap signal, KDM5B (3)",[21]; GST-tagged KDM5B (3),0.4151
same,"Array Heatmap signal, MORC3 (CW)",[22]; GST-tagged MORC3 (CW = CW-type Zn-finger),0.3309
same,"Array Heatmap signal, KDM5B (1)",[23]; GST-tagged KDM5B (1),0.5461
same,"Array Heatmap signal, PHRF1 (RP)",[24]; GST-tagged PHRF1 (RP),0.4296
same,"Array Heatmap signal, PHF2",[25]; GST-tagged PHF2,0.5516
same,"Array Heatmap signal, TAF3",[26]; GST-tagged TAF3,0.2511
same,"Array Heatmap signal, PHF8",[27]; GST-tagged PHF8,0.3408
same,"Array Heatmap signal, RAG2",[28]; GST-tagged RAG2,0.2293
same,"Array Heatmap signal, CHD4 (PPCC)",[29]; GST-tagged CHD4 (PPCC = Dual PHD + Dual Chromodomain),0.5474
same,"Array Heatmap signal, KDM5A (1)",[30]; GST-tagged KDM5A (1),0.4176
same,"Array Heatmap signal, BAZ2B",[31]; GST-tagged BAZ2B,0.4211
